Where no end group is shown, it is not given here. [ ]: non-standard residue; d: D form. The star is where a group is joined. tBu = CC(C)(C)*

Experimental findings from US20100210561A1, “USE OF PEPTIDE AS A THERAPEUTIC AGENT” (priority 2007, published 2010) are described below.

One assay has as its system HIV-1IIIB. Nature of the assay: HIV-1 antiviral assay in CEM-SS cells (MTS readout). Conditions: positive controls.
Assay [1] concerns Tumor Necrosis Factor-α (TNF-α). Nature of the assay: Th1/Th2 cytokine profiling assay: TNF-α. It counts as cell-based, Balb/c mice. The conditions noted are these: Ovalbumin-restimulated spleen cells, 72 hours.
The subject of assay [2] is hepatitis B virus (HBV) ayw strain. Nature of the assay: HBV assay in HepG2-2.2.15 cells (secreted HBV DNA, TaqMan PCR). It counts as cell-based. The conditions noted are these: 10 micrograms per ml, six days, HBV DNA in supernatant. On the technique in general: Real-time PCR tracks product formation cycle by cycle.
For a further assay, the system named is Interleukin-4 (IL-4). Nature of the assay: Th1/Th2 cytokine profiling assay: IL-4. It counts as cell-based, Balb/c mice. The conditions noted are these: Ovalbumin-restimulated spleen cells, 72 hours.
A further assay has as its system HUVEC. Nature of the assay: Endothelial tube formation assay. It counts as cell-based, human. The conditions noted are these: 10 micrograms per ml, 20 hours.
The next assay concerns Interferon-γ (IFN-γ). Nature of the assay: Th1/Th2 cytokine profiling assay: IFN-γ. It counts as cell-based, Balb/c mice. Conditions: Ovalbumin-restimulated spleen cells, 72 hours.
The subject of another assay is HCMV strain AD169. Nature of the assay: HCMV plaque formation assay in MRC-5 cells. The conditions noted are these: 10 micrograms per ml, 7-10 days. It counts as cell-based, human cytomegalovirus.
A further assay has as its system Interleukin-2 (IL-2). Nature of the assay: Th1/Th2 cytokine profiling assay: IL-2. It counts as cell-based, Balb/c mice. Conditions: Ovalbumin-restimulated spleen cells, 72 hours.

Procedure for HUVEC: The endothelial tube formation assay is based on the ability of endothelial cells to form three-dimensional capillary-like tubular structures when cultured on a gel of basement membrane extract. […] Positive control was vehicle only. The endothelial cells were allowed to form tubes foe 20 hours and were then examined under an inverted fluorescent microscope. Duplicate wells for each treatment were photographed and quantitatevily analyzed for an average tubule length using image analysis software ImageProPlus. Raw data were expressed as average tubule lengths in pixels±standard deviation. Statistic p values were computed using the Student's t-test.

As to `Cc1cn([C@H]2C[C@H](N=[N+]=[N-])[C@@H](CO)O2)c(=O)[nH]c1=O` [AZT], the “antiviral activity of positive control compounds” value with HIV-1IIIB is “expected levels of antiviral activity”.

As for `CC(C)(C)NC(=O)[C@@H]1CN(Cc2cccnc2)CCN1C[C@@H](O)C[C@@H](Cc1ccccc1)C(=O)N[C@H]1c2ccccc2C[C@H]1O` [indinavir], the “antiviral activity of positive control compounds” value in the assay on HIV-1IIIB is “expected levels of antiviral activity”.

With Y[dC](tBu)GFLT(tBu)-OH [Peptide 1], in assay [1], the “TNF-a spleen cells; TH1 response (% of control)” value is listed as 123.7 % of control and the “induction of the production of TNF-alpha in murine spleen cells” value is 23.7%. The “inhibition of HBV replication as compared to the virus control infection” value in assay [2] is 24.2%. Also, in the assay on Interleukin-4 (IL-4), the “IL-4 spleen cells; TH2 response (% of control)” value is recorded as 65.0 % of control and the “decrease of the production of IL-4 in murine spleen cells” value came to 35.0%. For the same molecule, in the assay with HUVEC, the “inhibition of the tube formation of human endothelial cells” value is on record as 4%. In the assay on Interferon-γ (IFN-γ), the “IFNγ spleen cells; TH1 response (% of control)” value is 107.6 % of control and the “induction of the production of IFN-γ in murine spleen cells” value was “did not significantly change”. Besides, the “inhibition of HCMV plaque formation as compared to the virus control experiment” value in the assay on HCMV strain AD169 is 46.5%. For the same molecule, in the assay on Interleukin-2 (IL-2), the “IL-2 spleen cells (% of control)” value is recorded as 115.0 % of control and the “induction of the production of IL-2 in murine spleen cells” value is “did not significantly change”.
